Measured values as given in US20100130459A1, “NEUROPROTECTIVE 7-BETA-HYDROXYSTEROIDS” (Hunter-Fleming Limited, priority 2000, published 2010).

Assays:
[1] = system: Organotypic hippocampal slice cultures (CA1 cell layer); assay: Hypoxic neuronal damage in organotypic hippocampal slice cultures (PI fluorescence in CA1); format: cell-based, Wistar rat
Procedure: Organotypic hippocampal slice cultures were prepared using the basic method of Pringle et al (1996, 1997) modified as follows:
Wistar rat pups (8-11 days old) were decapitated and the hippocampus rapidly dissected into ice-cold Gey's balanced salt solution supplemented with 4.5 mg/ml glucose. Slices were separated and plated onto Millicell CM culture inserts (4 per well) and maintained at 37′C./5% CO2 for 14 days. Maintenance medium consisted of 25% heat-inactivated horse serum, 25% Hank's balanced salt solution (HBSS) and 50% minimum essential medium with added Earle's salts (MEM) supplemented with 1 mM glutamine and 4.5 mg/ml glucose. Medium was changed every 3-4 days.
Experimental hypoxia was performed as described previously (Pringle e al., 1996; 1997). Briefly, cultures were transferred to serum free medium (SFM—75% MEM, 25% HBSS supplemented with 1 mM glutamine and 4.5 mg/ml glucose) containing 5 μg/ml of the fluorescent exclusion dye propidium iodide (PI). Cultures were allowed to equilibrate in SFM for 60 minutes prior to imaging. PI fluorescence was detected using a Leica inverted microscope fitted with a rhodamine filter set. Any cultures in which PI fluorescence was detected at this stage were excluded from further study. Hypoxia was induced by transferring cultures to SEM (+PI) which had been saturated with 95% N2/5% CO2. Culture plates (without lids) were then sealed into an airtight chamber in which the atmosphere was saturated with 95% N2/5% CO2 by continuously blowing through gas at 10 L/min for ten minutes before being sealed and placed in the incubator for 170 mins (total time of hypoxia was therefore 180 mins). At the end of the hypoxic period cultures were returned to normoxic SFM containing PI and placed back in the incubator for 24 hours.
Neuronal damage was assessed as described previously (Pringle et al., 1996; 1997) using either NIH Image 1.60 running on an Apple IIsi computer or OpenLab 2.1 (Improvision) running on a Macintosh G4/400. Images were captured using a monochrome camera and saved onto optical disk for offline analysis. Light transmission images were captured prior to the addition of drugs, and PI fluorescence images recorded at the end of the 24-hour post-hypoxia recovery period. The area of the CA1 cell layer was determined from the transmission image. The area of PI fluorescence in CA1 was measured using the density slice function within NIH Image or OpenLab, and neuronal damage expressed as the percentage of the CA1 in which PI fluorescence was detected above background.
Steroid compounds were prepared by making an initial 1 mg/ml solution in ethanol and further diluting down in SFM. Compounds were added to the cultures for 45 minutes prior to hypoxia, during the hypoxic episode and during the post-hypoxic recovery period. Control experiments consisted of cultures treated with vehicle alone.

[2] = system: hippocampal CA1 pyramidal cells; assay: Global cerebral ischemia in rats (4 vessel occlusion), surviving CA1 neurons by Nissl staining; format: in vivo, male Wistar rats
Procedure: Cerebral ischemia was induced by four-vessel-occlusion (4VO) in male Wistar rats (250-280 g). Both vertebral arteries were occluded by electrocauterization in pentobarbital anesthesia (60 mg/kg i.p.). The animals were allowed to recover for 24 hours with free access to water but not food. The next day the carotid arteries were exposed under 2% halothane in 30% oxygen/70% nitrous oxide anesthesia and were occluded for 10 minutes using microvascular claps. Subsequently, both clamps were removed and both arteries were inspected for immediate reperfusion. During the operation and the following 3 hours normothermia of the animals (37.5±0.5° C.) was maintained by using a thermostatically controlled heating blanket connected to a rectal thermometer. For control, in sham-operated animals both vertebral arteries were cauterized in pentobarbital anesthesia and both common carotid arteries were exposed but not clamped under 2% halothane in 30% oxygen/70% nitrous oxide anesthesia the following day. The wound was treated with lidocaine gel and then sutured. The animals were kept under a heating lamp at 30° C. environmental temperature until they regained consciousness.
Seven groups of animals were investigated: • 1. (n=8) steroid compound, 7β-OH EPIA (0.1 mg/kg, i. v. via tail vein, three injections: 15 minutes prior to the induction of ischemia, during ischemia and 5 minutes after reperfusion); • 2. (n=8) steroid compound, 7β-OH EPIA (0.3 mg/kg, i. v. three injections as described in 1.); • 3. (n=8) steroid compound, 7β-OH EPIA (1 mg/kg, i. v., three injections as described in 1.); • 4. (n=8) NBQX (disodium salt, because more water soluble) as reference substance and positive control (TOCRIS, Germany, 30 mg/kg, i. p., three injections as described in 1.); • 5. (n=8) received vehicle (0.9% NaCl, containing 100 μl Ethanol) three injections as described in 1.); • 6. (n=8) ischemia alone; • 7. (n=8) sham operated controls.
The substances were dissolved in 100 μl Ethanol and finally diluted with 0.9% NaCl.
After a survival time of 7 days after ischemia, all animals were perfusion fixed transcardially with 4% paraformaldehyde. The brains were then removed carefully and postfixed in the same fixative for 2 hours. After cryoprotection in 30% sucrose, the brains were rapidly frozen in isopentane and stored at −80° C. Twenty-micrometer cryostat sections comprising the hippocampal formation were Niss1 stained with toluidine blue or NeuroTrace fluorescence.
The severity of neuronal damage in the hippocampal CA1 region after ischemia was evaluated by the number of surviving neurons using Niss1 staining. The mean number of morphologically intact neurons per 400 μm length was calculated in CA1 region for each group. Cell counting was performed in 3-5 serial sections per animal and 6 times 400 μm CA1 area per section using a light microscope equipped with a 20× objective. The data were statistically analyzed by paired Student's t-test. Data were presented as mean±SEM.

[3] = Experiment 1, 100 nM pre-, during and post-hypoxia
[4] = Experiment 1, 100 nM present pre-, during and post-hypoxia, control hypoxia 25.5 ± 6.4
[5] = 30 mg/kg, three injections, 10 min global ischemia, 7 days survival

SMILES: C[C@]12CC[C@H](O)C[C@@H]1C[C@@H](O)[C@@H]1[C@@H]2CC[C@]2(C)C(=O)CC[C@@H]12 [Example 7αOH-EPIA, 7α-Hydroxy-EPIA]
- Reduction of hypoxic damage in CA1 (in words) [1, 3]: significantly reduced
- % Damage in CA1 [1, 4]: 4.0 ± 2.9 %

SMILES: C[C@]12CC[C@H](O)CC1=C[C@H](O)[C@@H]1[C@@H]2CC[C@]2(C)C(=O)CC[C@@H]12 [Example 7βOH-DHEA, 7β-hydroxy-DHEA]
- Reduction in neuronal damage (in words) ([1]; Experiment 3, 100 nM pre-, during and post-hypoxia): large, highly significant, reduction in neuronal damage
- % Damage in CA1 ([1]; Experiment 3, 100 nM pre-, during and post-hypoxia, control hypoxia 29.0 ± 6.2): 4.2 ± 1.9 %

SMILES: C[C@]12CC[C@H](O)C[C@@H]1C[C@H](O)[C@@H]1[C@@H]2CC[C@]2(C)C(=O)CC[C@@H]12 [Example 7βOH-EPIA, 7β-hydroxyepiandrosterone]
- Neuroprotective effect (in words, t-test) ([2]; 0.1 mg/kg (p=0.01) and 0.3 mg/kg (p=0.0008) i.v.): highly significant neuroprotective effect
- Neuroprotective effect on CA1 pyramidal cells compared to the sham operated group (FIG. 1C) ([2]; 0.1 mg/kg i.v., three injections, 10 min global ischemia, 7 days survival): 74.8%
- Neuroprotective effect on CA1 pyramidal cells compared to the sham operated group (FIG. 1C) ([2]; 0.3 mg/kg i.v., three injections, 10 min global ischemia, 7 days survival): 83.9%
- Neuroprotection of CA1 pyramidal cells (in words) ([2]; 1.0 mg/kg i.v., three injections): only a tendency to neuroprotection, but the effect was not significant
- Behavioral abnormalities of the animals ([2]; injected i.v. prior, during and after ischemia, all experiments): never observed any behavioral abnormalities
- Reduction of hypoxic damage in CA1 (in words) [1, 3]: significantly reduced
- % Damage in CA1 [1, 4]: 9.0 ± 4.7 %
- Neuroprotection against hypoxia (in words) ([1]; Experiment 2, 1 nM): activity was lost
- % Damage in CA1 ([1]; Experiment 2, 1 nM, control hypoxia 31.9 ± 4.7): 20.6 ± 7.2%
- Neuroprotection against hypoxia (in words) ([1]; Experiment 2, 10 nM and 100 nM): significantly neuroprotective
- % Damage in CA1 ([1]; Experiment 2, 10 nM, control hypoxia 31.9 ± 4.7): 11.9 ± 4.7 %
- % Damage in CA1 ([1]; Experiment 2, 100 nM, control hypoxia 31.9 ± 4.7): 14.3 ± 5.0 %

SMILES: NS(=O)(=O)c1cccc2c1c([N+](=O)[O-])cc1nc(O)c(O)nc12 [NBQX, 2,3-dihydroxy-6-nitro-7-sulfamoyl-benzo(F)quinoxaline, reference compound]
- Neuroprotection in CA1 pyramidal cells compared to the ischemia group (in words, t-test) ([2]; 30 mg/kg, three injections): significant (p=0.03) neuroprotection
- Neuroprotection compared to the ischemia alone [2, 5]: 47.5%
- Protective effect compared to the sham operated animals [2, 5]: 68.5%
